Measurements: US11117892B2, “Pyrrolo-pyridine derivative compound, method for preparing same, and pharmaceutical composition containing same as active ingredient for prevention or treatment of protein kinase-related diseases” (DAEGU-GYEONGBUK MEDICAL INNOVATION FOUNDATION, priority 2017, dated 2021)
Like-named read-outs stand apart in the source and are kept apart here.

Key:
Assay in all cases: scanMAX Kinase assay panel
Type in all cases: binding
Settings in all cases: read-out: % control
[1] = target: KIT(L576P) (Homo sapiens (Human), UniProt P10721, L576P)
KIT(L576P), sequence (P10721 26-976 L576P): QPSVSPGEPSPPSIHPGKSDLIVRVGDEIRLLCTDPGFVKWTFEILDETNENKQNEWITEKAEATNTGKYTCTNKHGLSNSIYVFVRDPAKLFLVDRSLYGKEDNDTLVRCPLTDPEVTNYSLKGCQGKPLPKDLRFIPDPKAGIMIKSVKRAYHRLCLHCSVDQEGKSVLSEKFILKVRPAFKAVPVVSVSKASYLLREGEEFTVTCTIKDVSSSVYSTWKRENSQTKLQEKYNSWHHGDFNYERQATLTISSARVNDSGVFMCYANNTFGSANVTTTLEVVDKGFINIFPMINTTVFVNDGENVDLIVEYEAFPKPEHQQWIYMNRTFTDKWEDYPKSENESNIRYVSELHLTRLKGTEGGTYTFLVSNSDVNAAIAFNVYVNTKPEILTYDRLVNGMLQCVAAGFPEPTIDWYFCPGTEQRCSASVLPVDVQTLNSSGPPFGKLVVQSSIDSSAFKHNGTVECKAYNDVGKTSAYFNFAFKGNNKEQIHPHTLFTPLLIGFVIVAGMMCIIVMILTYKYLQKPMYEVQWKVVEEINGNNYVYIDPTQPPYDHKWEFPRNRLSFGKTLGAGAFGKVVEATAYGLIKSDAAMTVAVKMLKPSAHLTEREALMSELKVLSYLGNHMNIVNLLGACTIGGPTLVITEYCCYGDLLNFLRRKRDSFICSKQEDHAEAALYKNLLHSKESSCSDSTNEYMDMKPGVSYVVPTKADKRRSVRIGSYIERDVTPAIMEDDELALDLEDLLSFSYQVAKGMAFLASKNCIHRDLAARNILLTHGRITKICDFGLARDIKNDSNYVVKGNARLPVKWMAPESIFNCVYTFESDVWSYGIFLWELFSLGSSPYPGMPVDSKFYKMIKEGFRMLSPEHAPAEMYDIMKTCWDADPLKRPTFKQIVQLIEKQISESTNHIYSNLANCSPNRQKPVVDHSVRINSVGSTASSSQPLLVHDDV
Outline: (§1)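 Panel: scanMAX. Metric: % control. The 100% anchor is DMSO and the 0% anchor is the positive control.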

[2] = target: CSF1R (Homo sapiens (Human), UniProt P07333)
CSF1R, sequence (P07333 20-972): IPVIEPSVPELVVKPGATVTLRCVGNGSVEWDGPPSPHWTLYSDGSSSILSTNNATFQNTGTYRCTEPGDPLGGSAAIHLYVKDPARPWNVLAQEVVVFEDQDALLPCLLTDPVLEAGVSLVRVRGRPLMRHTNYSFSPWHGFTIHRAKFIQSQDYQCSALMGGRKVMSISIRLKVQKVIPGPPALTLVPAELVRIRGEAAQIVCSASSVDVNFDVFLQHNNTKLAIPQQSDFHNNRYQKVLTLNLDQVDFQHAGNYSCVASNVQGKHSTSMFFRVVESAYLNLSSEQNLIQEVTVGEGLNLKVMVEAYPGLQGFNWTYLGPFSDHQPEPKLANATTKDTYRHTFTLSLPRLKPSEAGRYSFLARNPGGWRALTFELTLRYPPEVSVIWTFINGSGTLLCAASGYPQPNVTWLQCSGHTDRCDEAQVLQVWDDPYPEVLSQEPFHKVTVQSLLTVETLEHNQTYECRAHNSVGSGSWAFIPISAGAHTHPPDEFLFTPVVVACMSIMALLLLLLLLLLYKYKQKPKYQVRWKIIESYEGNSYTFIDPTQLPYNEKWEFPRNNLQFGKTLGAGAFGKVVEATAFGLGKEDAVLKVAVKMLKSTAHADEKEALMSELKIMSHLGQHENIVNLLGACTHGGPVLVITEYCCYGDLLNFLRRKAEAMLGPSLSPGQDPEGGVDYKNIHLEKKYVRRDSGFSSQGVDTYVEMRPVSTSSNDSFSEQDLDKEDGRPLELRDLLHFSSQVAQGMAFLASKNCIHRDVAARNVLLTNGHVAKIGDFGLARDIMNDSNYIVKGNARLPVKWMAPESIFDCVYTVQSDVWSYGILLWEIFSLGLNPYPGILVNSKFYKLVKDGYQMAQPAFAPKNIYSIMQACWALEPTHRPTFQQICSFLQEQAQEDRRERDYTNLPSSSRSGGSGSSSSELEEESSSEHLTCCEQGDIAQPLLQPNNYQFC
Outline: as §1

[3] = target: DMPK2 (Homo sapiens (Human), UniProt Q6DT37)
Outline: as §1

[4] = target: NLK (Homo sapiens (Human), UniProt Q9UBE8)
Outline: as §1

[5] = target: NEK11 (Homo sapiens (Human), UniProt Q8NG66)
Outline: as §1

[6] = target: MET(M1250T) (Homo sapiens (Human), UniProt P08581, M1250T)
Outline: as §1

[7] = target: FES (Homo sapiens (Human), UniProt P07332)
Outline: as §1

[8] = target: CSNK1D (Homo sapiens (Human), UniProt P48730)
Outline: as §1

[9] = target: CHEK2 (Homo sapiens (Human), UniProt O96017)
Outline: as §1

[10] = target: ABL1-phosphorylated (Homo sapiens (Human), UniProt P00519)
ABL1-phosphorylated, sequence (P00519 whole entry): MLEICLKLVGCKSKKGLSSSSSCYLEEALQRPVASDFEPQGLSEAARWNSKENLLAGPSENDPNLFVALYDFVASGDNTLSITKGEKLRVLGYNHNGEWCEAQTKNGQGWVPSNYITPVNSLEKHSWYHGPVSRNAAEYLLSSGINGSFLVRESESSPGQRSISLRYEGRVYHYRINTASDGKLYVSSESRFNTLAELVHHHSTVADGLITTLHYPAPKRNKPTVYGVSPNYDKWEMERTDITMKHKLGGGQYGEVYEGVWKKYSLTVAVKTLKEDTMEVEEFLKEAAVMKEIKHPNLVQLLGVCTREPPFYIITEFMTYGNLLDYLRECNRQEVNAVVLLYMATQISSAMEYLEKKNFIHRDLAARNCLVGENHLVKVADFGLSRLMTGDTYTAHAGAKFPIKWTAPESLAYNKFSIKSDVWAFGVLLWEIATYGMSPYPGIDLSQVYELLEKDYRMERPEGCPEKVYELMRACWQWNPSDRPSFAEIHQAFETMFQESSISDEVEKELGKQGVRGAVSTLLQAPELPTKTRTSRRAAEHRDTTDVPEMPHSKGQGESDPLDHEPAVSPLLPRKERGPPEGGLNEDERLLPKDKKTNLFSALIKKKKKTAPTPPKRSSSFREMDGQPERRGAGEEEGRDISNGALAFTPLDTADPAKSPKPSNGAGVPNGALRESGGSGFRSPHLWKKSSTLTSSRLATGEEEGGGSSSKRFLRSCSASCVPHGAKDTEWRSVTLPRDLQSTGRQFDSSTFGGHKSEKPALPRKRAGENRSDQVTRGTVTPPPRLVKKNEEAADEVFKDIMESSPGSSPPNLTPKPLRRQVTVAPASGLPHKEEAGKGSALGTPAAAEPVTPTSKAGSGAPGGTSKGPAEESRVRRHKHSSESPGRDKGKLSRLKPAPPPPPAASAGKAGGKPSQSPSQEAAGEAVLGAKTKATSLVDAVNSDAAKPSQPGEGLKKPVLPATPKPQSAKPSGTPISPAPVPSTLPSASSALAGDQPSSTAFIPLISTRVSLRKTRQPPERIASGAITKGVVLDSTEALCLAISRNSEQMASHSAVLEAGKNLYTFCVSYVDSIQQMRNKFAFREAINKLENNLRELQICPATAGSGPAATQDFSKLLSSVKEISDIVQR
Outline: as §1

[11] = target: CASK (Homo sapiens (Human), UniProt O14936)
Outline: as §1

[12] = target: SIK2 (Homo sapiens (Human), UniProt Q9H0K1)
Outline: as §1

[13] = target: RET(V804M) (Homo sapiens (Human), UniProt P07949, V804M)
Outline: as §1

[14] = target: KIT(D816H) (Homo sapiens (Human), UniProt P10721, D816H)
KIT(D816H), sequence (P10721 26-976 D816H): as the sequence (P10721 26-976 L576P) above, with P551L, D791H counted along it
Outline: as §1

[15] = target: FLT3(D835V) (Homo sapiens (Human), UniProt P36888, D835V)
Outline: as §1

[16] = target: ABL1(F317I)-phosphorylated (Homo sapiens (Human), UniProt P00519, F317I)
Outline: as §1

[17] = target: ACVR1 (Homo sapiens (Human), UniProt Q04771)
Outline: as §1

[18] = target: MARK2 (Homo sapiens (Human), UniProt Q7KZI7)
Outline: as §1

[19] = target: FRK (Homo sapiens (Human), UniProt P42685)
Outline: as §1

[20] = target: RSK1(Kin.Dom.2-C-terminal) (Homo sapiens (Human), UniProt Q15418)
Outline: as §1

[21] = target: CAMK1D (Homo sapiens (Human), UniProt Q8IU85)
Outline: as §1

[22] = target: OSR1 (Homo sapiens (Human), UniProt O95747)
Outline: as §1

[23] = target: VRK2 (Homo sapiens (Human), UniProt Q86Y07)
Outline: as §1

[24] = target: CDKL2 (Homo sapiens (Human), UniProt Q92772)
Outline: as §1

[25] = target: FGFR2 (Homo sapiens (Human), UniProt P21802)
Outline: as §1

[26] = target: RIPK4 (Homo sapiens (Human), UniProt P57078)
Outline: as §1

[27] = target: ASK1 (Homo sapiens (Human), UniProt Q99683)
Outline: as §1

[28] = target: FLT1 (Homo sapiens (Human), UniProt P17948)
FLT1, sequence (P17948 27-1338): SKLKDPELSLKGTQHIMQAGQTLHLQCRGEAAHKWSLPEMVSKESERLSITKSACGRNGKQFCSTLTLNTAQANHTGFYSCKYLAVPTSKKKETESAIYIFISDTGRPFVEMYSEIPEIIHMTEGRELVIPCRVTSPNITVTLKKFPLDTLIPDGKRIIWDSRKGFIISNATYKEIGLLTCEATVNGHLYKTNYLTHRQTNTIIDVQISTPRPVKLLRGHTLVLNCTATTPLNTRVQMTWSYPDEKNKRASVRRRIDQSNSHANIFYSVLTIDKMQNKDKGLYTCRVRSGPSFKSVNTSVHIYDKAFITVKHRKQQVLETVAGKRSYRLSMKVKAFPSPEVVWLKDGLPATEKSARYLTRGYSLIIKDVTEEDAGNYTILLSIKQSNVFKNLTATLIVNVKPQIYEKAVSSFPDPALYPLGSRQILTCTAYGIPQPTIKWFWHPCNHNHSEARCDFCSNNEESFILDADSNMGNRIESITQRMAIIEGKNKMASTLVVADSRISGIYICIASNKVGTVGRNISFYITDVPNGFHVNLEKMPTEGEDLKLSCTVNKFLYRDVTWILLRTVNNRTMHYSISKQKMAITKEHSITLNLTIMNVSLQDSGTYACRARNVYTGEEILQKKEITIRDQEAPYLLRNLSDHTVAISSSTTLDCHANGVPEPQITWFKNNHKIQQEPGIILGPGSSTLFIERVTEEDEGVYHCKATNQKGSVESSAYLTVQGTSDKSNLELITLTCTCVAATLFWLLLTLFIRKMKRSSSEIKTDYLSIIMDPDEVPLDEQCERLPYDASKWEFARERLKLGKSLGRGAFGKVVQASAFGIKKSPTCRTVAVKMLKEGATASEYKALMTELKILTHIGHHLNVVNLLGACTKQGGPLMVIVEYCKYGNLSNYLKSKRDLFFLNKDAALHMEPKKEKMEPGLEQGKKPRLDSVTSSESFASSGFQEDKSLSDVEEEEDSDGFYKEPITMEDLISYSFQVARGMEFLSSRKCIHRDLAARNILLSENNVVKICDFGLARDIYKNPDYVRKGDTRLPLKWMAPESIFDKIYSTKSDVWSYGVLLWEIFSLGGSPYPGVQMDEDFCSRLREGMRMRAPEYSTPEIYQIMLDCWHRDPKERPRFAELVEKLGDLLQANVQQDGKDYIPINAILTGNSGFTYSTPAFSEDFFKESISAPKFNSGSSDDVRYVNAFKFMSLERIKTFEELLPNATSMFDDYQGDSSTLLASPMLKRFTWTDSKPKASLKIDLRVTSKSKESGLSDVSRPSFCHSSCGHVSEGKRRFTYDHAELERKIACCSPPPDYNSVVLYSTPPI
Outline: as §1

[29] = target: AURKA (Homo sapiens (Human), UniProt O14965)
AURKA, sequence (O14965 whole entry): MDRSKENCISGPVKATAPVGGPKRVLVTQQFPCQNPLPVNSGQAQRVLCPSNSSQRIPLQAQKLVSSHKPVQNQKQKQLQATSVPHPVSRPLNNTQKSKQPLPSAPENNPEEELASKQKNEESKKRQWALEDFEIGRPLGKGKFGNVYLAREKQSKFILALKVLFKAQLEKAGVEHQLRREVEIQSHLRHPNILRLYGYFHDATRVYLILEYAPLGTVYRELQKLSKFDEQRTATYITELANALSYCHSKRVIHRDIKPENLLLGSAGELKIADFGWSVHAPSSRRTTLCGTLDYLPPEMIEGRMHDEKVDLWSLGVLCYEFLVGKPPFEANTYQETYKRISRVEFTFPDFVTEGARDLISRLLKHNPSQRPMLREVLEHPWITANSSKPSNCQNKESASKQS
Outline: as §1

[30] = target: PIKFYVE (Homo sapiens (Human), UniProt Q9Y2I7)
Outline: as §1

[31] = target: EPHA8 (Homo sapiens (Human), UniProt P29322)
Outline: as §1

[32] = target: JAK3(JH1domain-catalytic) (Homo sapiens (Human), UniProt P52333)
JAK3(JH1domain-catalytic), sequence (P52333 822-1111): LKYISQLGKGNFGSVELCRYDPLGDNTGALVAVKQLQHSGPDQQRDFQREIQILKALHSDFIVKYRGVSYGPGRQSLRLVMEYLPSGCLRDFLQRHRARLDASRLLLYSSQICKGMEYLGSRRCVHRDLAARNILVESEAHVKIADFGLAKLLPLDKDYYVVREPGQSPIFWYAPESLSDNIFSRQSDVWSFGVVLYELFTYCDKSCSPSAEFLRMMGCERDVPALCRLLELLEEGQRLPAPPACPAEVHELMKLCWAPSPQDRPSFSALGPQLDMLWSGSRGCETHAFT
Outline: as §1

[33] = target: MLK2 (Homo sapiens (Human), UniProt Q02779)
Outline: as §1

[34] = target: TRKA (Homo sapiens (Human), UniProt P04629)
Outline: as §1

[35] = target: TAK1 (Homo sapiens (Human), UniProt O43318)
Outline: as §1

[36] = target: PIK3CA(H1047L) (Homo sapiens (Human), UniProt P42336, H1047L)
Outline: as §1

[37] = target: MET(Y1235D) (Homo sapiens (Human), UniProt P08581, Y1235D)
Outline: as §1

[38] = target: RAF1 (Homo sapiens (Human), UniProt P04049)
Outline: as §1

CCNc1cc(Nc2ccc(C(=O)N3CCC(N4CCOCC4)CC3)cc2OC)nc2[nH]cc(C#N)c12 [Example 18, 4-(ethylamino)-6-((2-methoxy-4-(4-morpholinopiperidine-1-carbonyl)phenyl)amino)-1H-pyrrolo[2,3-b]pyridine-3-carbonitrile] was tested. Which remaining binding at 1 µM [1] did it give?
The remaining binding at 1 µM was 77%.

What about the remaining binding at 1 µM [2] of the same molecule?
Its remaining binding at 1 µM is 73%.

And the remaining binding at 1 µM [3]?
Its remaining binding at 1 µM is 85%.

What about the remaining binding at 1 µM [4] of the same molecule?
The remaining binding at 1 µM was 84%.

What about the remaining binding at 1 µM [5] of the same molecule?
Its remaining binding at 1 µM is 100%.

What about the remaining binding at 1 µM [6] of the same molecule?
The remaining binding at 1 µM was 100%.

What about the remaining binding at 1 µM [7] of the same molecule?
Its remaining binding at 1 µM is 89%.

What about the percent of control binding at 1 µM ([8]; CSNK1D, 1 uM) of the same molecule?
Its percent of control binding at 1 µM is 5.3%.

And the remaining binding at 1 µM [9]?
Its remaining binding at 1 µM is 4.1%.

And the remaining binding at 1 µM [10]?
The remaining binding at 1 µM was 87%.

And the remaining binding at 1 µM [11]?
Its remaining binding at 1 µM is 76%.

And the remaining binding at 1 µM [12]?
Its remaining binding at 1 µM is 87%.

What about the remaining binding at 1 µM [13] of the same molecule?
The remaining binding at 1 µM was 99%.

What about the remaining binding at 1 µM [14] of the same molecule?
The remaining binding at 1 µM was 80%.

And the remaining binding at 1 µM [15]?
The remaining binding at 1 µM was 74%.

What about the remaining binding at 1 µM [16] of the same molecule?
Its remaining binding at 1 µM is 80%.

And the remaining binding at 1 µM [17]?
The remaining binding at 1 µM was 92%.

What about the remaining binding at 1 µM [18] of the same molecule?
Its remaining binding at 1 µM is 89%.

What about the remaining binding at 1 µM [19] of the same molecule?
The remaining binding at 1 µM was 94%.

What about the remaining binding at 1 µM [20] of the same molecule?
Its remaining binding at 1 µM is 64%.

What about the remaining binding at 1 µM [21] of the same molecule?
The remaining binding at 1 µM was 31%.

What about the remaining binding at 1 µM [22] of the same molecule?
Its remaining binding at 1 µM is 41%.

And the remaining binding at 1 µM [23]?
The remaining binding at 1 µM was 87%.

What about the remaining binding at 1 µM [24] of the same molecule?
The remaining binding at 1 µM was 100%.

What about the remaining binding at 1 µM [25] of the same molecule?
Its remaining binding at 1 µM is 85%.

And the remaining binding at 1 µM [26]?
The remaining binding at 1 µM was 69%.

And the remaining binding at 1 µM [27]?
The remaining binding at 1 µM was 79%.

And the remaining binding at 1 µM [28]?
Its remaining binding at 1 µM is 46%.

And the remaining binding at 1 µM [29]?
The remaining binding at 1 µM was 94%.

What about the remaining binding at 1 µM [30] of the same molecule?
The remaining binding at 1 µM was 99%.

What about the remaining binding at 1 µM [31] of the same molecule?
Its remaining binding at 1 µM is 85%.

What about the remaining binding at 1 µM [32] of the same molecule?
The remaining binding at 1 µM was 54%.

What about the remaining binding at 1 µM [33] of the same molecule?
Its remaining binding at 1 µM is 72%.

What about the remaining binding at 1 µM [34] of the same molecule?
The remaining binding at 1 µM was 86%.

What about the remaining binding at 1 µM [35] of the same molecule?
Its remaining binding at 1 µM is 59%.

What about the remaining binding at 1 µM [36] of the same molecule?
The remaining binding at 1 µM was 85%.

And the remaining binding at 1 µM [37]?
The remaining binding at 1 µM was 100%.

What about the remaining binding at 1 µM [38] of the same molecule?
The remaining binding at 1 µM was 97%.

Which results are given for CCNc1cc(Nc2ccc(C(=O)N3CCC(N4CCOCC4)CC3)cc2OC)nc2[nH]cc(C(F)(F)F)c12 [Example 57, (4-((4-(ethylamino)-3-(trifluoromethyl)-1H-pyrrolo[2,3-b]pyridin-6-yl)amino)-3-methoxyphenyl) (4-morpholinopiperidin-1-yl)methanone]?
remaining binding at 1 µM [1]: 100%; remaining binding at 1 µM [2]: 72%; remaining binding at 1 µM [3]: 96%; remaining binding at 1 µM [4]: 84%; remaining binding at 1 µM [5]: 100%; remaining binding at 1 µM [6]: 100%; remaining binding at 1 µM [7]: 87%; percent of control binding at 1 µM [8]: 30%; remaining binding at 1 µM [9]: 47%; remaining binding at 1 µM [10]: 61%; remaining binding at 1 µM [11]: 88%; remaining binding at 1 µM [12]: 95%; remaining binding at 1 µM [13]: 95%; remaining binding at 1 µM [14]: 96%; remaining binding at 1 µM [15]: 92%; remaining binding at 1 µM [16]: 100%; remaining binding at 1 µM [17]: 88%; remaining binding at 1 µM [18]: 93%; remaining binding at 1 µM [19]: 92%; remaining binding at 1 µM [20]: 77%; remaining binding at 1 µM [21]: 73%; remaining binding at 1 µM [22]: 82%; remaining binding at 1 µM [23]: 100%; remaining binding at 1 µM [24]: 90%; remaining binding at 1 µM [25]: 72%; remaining binding at 1 µM [26]: 95%; remaining binding at 1 µM [27]: 77%; remaining binding at 1 µM [28]: 94%; remaining binding at 1 µM [29]: 83%; remaining binding at 1 µM [30]: 77%; remaining binding at 1 µM [31]: 100%; remaining binding at 1 µM [32]: 100%; remaining binding at 1 µM [33]: 77%; remaining binding at 1 µM [34]: 100%; remaining binding at 1 µM [35]: 79%; remaining binding at 1 µM [36]: 100%; remaining binding at 1 µM [37]: 85%; remaining binding at 1 µM [38]: 72%
